Target: T1, human BRD4 bromodomain II (Homo sapiens, UniProt O60885)
T1 construct: human BRD4 bromodomain II [based on Genbank NM_058243, residues 349-460]; host or cells: E. coli
Assay: Bromodomain binding assay (AlphaScreen), BRD4 BDII
Conditions: AlphaScreen assay, Table C2; read-out: BRD4 BDII IC50
Protocol: Bromodomain Binding Assay
The bromodomain binding assay utilizes AlphaScreen technology. Compounds compete with a biotinylated peptide ligand (from histone H4: aa 1-21, K5/K8/K12/K16Ac-biotin) for binding to a hexahistidine (His6)-tagged bromodomain. Peptide binding is detected by fluorescence signal after singlet oxygen energy transfer from peptide-bound AlphaScreen streptavidin-coated donor beads to His6-tagged bromodomain-bound nickel-chelate acceptor beads (PerkinElmer). Briefly, 8 μL 2.5× bromodomain (E. coli expressed, N-terminal His6-tagged human BRD4 bromodomain II [based on Genbank NM_058243, residues 349-460] or N-terminal His6-tagged human BRD4 bromodomain I [residues 44-170]) in reaction buffer (50 mM HEPES [pH 7.5], 100 mM NaCl, 0.05% CHAPS, 0.1% BSA, 1% DMSO) is added to wells of an assay plate (384-well low flange white, flat bottom, polystyrene microplate, Corning #3572; buffer only is added to some wells as a negative control). A compound concentration series (10 concentrations, 3-fold serial dilutions previously prepared in 100% DMSO, or 100% DMSO only negative control) is delivered to the assay plate with an Echo 550 acoustic liquid handler (Labcyte), followed by plate centrifugation and incubation for 30 minutes at room temperature. Then 4 μL 5× biotinylated peptide ligand is added, followed by plate centrifugation and gentle shaking for 30 minutes at room temperature to mix. After this incubation, 4 μL 5× donor beads are added, and the plate is centrifuged, followed by brief gentle shaking to mix. Finally, 4 μL 5× acceptor beads are added, and the plate is centrifuged, followed by gentle shaking for 60 minutes at room temperature in the dark. AlphaScreen signal (excitation/emission: 680 nm/520-620 nm) is detected with an EnSpire multimode plate reader (PerkinElmer). Percentage peptide binding is plotted as a function of concentration, and curve fitting is used to determine competitive compound binding ICsos.

Row | Structure (SMILES) | IC50
1 | CC(=O)Nc1ccc(-c2cccc(-c3ccc(OC4CCC4)cc3)c2O)cc1F [Example 117, N-(4″-Cyclobutoxy-3-fluoro-2′-hydroxy-[1,1′:3′,1″-terphenyl]-4-yl)acetamide] | > 100 nM
2 | CC(=O)Nc1ccc(-c2cccc(-c3ccc(NC(C)=O)c(C#N)c3)c2O)cc1F [Example 49, N,N′-(3-Cyano-3″-fluoro-2′-hydroxy-[1,1′:3′,1″-terphenyl]-4,4″-diyl)diacetamide] | 10 to 100 nM
3 | COC(=O)Nc1ccc(-c2cccc(-c3cc(N4CCNCC4)no3)c2O)cc1 [Example 141, Methyl (2′-hydroxy-3′-(3-(piperazin-1-yl)isoxazol-5-yl)-[1,1′-biphenyl]-4-yl)carbamate 2,2,2-trifluoroacetate] | > 100 nM
4 | CC(=O)Nc1ccc(-c2cc(F)cc(-c3cnn(C4CCN(C)CC4)c3)c2O)cc1 [Example 134, N-(5′-fluoro-2′-hydroxy-3′-(1-(1-methylpiperidin-4-yl)-1H-pyrazol-4-yl)-[1,1′-biphenyl]-4-yl)acetamide] | > 100 nM
5 | CC(=O)Nc1ccc(-c2cccc(-c3cc(N4CCNCC4)ccn3)c2O)cc1F [Example 233, N-(3-fluoro-2′-hydroxy-3′-(4-(piperazin-1-yl)pyridin-2-yl)-[1,1′-biphenyl]-4-yl)acetamide] | > 100 nM
6 | CC(=O)Nc1ccc(-c2cccc(-c3ccc(NC(C)=O)c(OC4CCC4)c3)c2O)cc1F [Example 45, N,N′-(3-Cyclobutoxy-3″-fluoro-2′-hydroxy-[1,1′:3′,1″-terphenyl]-4,4″-diyl)diacetamide] | > 100 nM
7 | CC(=O)Nc1ccc(-c2cccc(-c3cccc(-c4nc[nH]n4)c3)c2O)cc1F [Example 208, N-(3-fluoro-2′-hydroxy-3″-(1H-1,2,4-triazol-3-yl)-[1,1′:3′,1″-terphenyl]-4-yl)acetamide] | > 100 nM
8 | CC(=O)Nc1ccc(-c2cccc(-c3ccnc(N)c3)c2O)cc1F [Example 111, N-(3′-(2-Aminopyridin-4-yl)-3-fluoro-2′-hydroxy-[1,1′-biphenyl]-4-yl)acetamide] | 10 to 100 nM
9 | CCC(=O)Nc1ccc(-c2cccc(-c3cc(N4CCNCC4)no3)c2O)cc1 [Example 116, N-(2′-Hydroxy-3′-(3-(piperazin-1-yl)isoxazol-5-yl)-[1,1′-biphenyl]-4-yl)propionamide 2,2,2-trifluoroacetate] | > 100 nM
10 | O=C(Nc1ccc(-c2cccc(-c3cc(N4CCNCC4)no3)c2O)cc1)C(F)(F)F [Example 39, 2,2,2-Trifluoro-N-(2′-hydroxy-3′-(3-(piperazin-1-yl)isoxazol-5-yl)-[1,1′-biphenyl]-4-yl)acetamide 2,2,2-trifluoroacetate] | > 100 nM
11 | CC(=O)Nc1ccc(-c2cccc(-c3ccncc3)c2O)cc1F [Example 67, N-(3-Fluoro-2′-hydroxy-3′-(pyridin-4-yl)-[1,1′-biphenyl]-4-yl)acetamide] | > 100 nM
12 | CC(=O)Nc1ccc(-c2cccc(-c3cccc(-c4ccnc(N)c4)c3)c2O)cc1F [Example 204, N-(3″-(2-aminopyridin-4-yl)-3-fluoro-2′-hydroxy-[1,1′:3′,1″-terphenyl]-4-yl)acetamide] | 1 to 10 nM
13 | CC(=O)Nc1ccc(-c2cccc(-c3cccc(OC4CCC4)c3)c2O)cc1F [Example 114, N-(3″-Cyclobutoxy-3-fluoro-2′-hydroxy-[1,1′:3′,1″-terphenyl]-4-yl)acetamide] | > 100 nM
14 | CCc1cccc(-c2cccc(-c3ccc(NC(C)=O)c(F)c3)c2O)c1 [Example 79, N-(3″-Ethyl-3-fluoro-2′-hydroxy-[1,1′:3′,1″-terphenyl]-4-yl)acetamide] | > 100 nM
15 | CC(=O)Nc1ccc(-c2cccc(-c3cccc(Cl)c3)c2O)cc1F [Example 77, N-(3″-Chloro-3-fluoro-2′-hydroxy-[1,1′:3′,1″-terphenyl]-4-yl)acetamide] | > 100 nM

Results, then the molecule that gave them:

Row | IC50 | Structure (SMILES)
16 | > 100 nM | CCOc1cccc(-c2cccc(-c3ccc(NC(C)=O)c(F)c3)c2O)c1 [Example 72, N-(3″-Ethoxy-3-fluoro-2′-hydroxy-[1,1′:3′,1″-terphenyl]-4-yl)acetamide]
17 | 10 to 100 nM | CC(=O)Nc1ccc(-c2cccc(-c3ccnc(N4CC(N)C4)c3)c2O)cc1F [Example 232, N-(3′-(2-(3-aminoazetidin-1-yl)pyridin-4-yl)-3-fluoro-2′-hydroxy-[1,1′-biphenyl]-4-yl)acetamide]
18 | > 100 nM | O=C1CCCN1c1c(Cl)cc(-c2cccc(-c3cc(N4CCNCC4)no3)c2O)cc1Cl [Example 172, 1-(3,5-dichloro-2′-hydroxy-3′-(3-(piperazin-1-yl)isoxazol-5-yl)-[1,1′-biphenyl]-4-yl)pyrrolidin-2-one]
19 | 10 to 100 nM | CC(=O)Nc1ccc(-c2cccc(-c3cccc(N4CC5CCC4CN5)c3)c2O)cc1F (stereo not shown) [Example 174, N-(3″-(2,5-diazabicyclo[2.2.2]octan-2-yl)-3-fluoro-2′-hydroxy-[1,1′:3′,1″-terphenyl]-4-yl)acetamide]
20 | > 100 nM | CC(=O)Nc1ccc(-c2cccc(-c3cnn(C4CCN(C)CC4)c3)c2O)cc1 [Example 17, N-(2′-Hydroxy-3′-(1-(1-methylpiperidin-4-yl)-1H-pyrazol-4-yl)-[1,1′-biphenyl]-4-yl)acetamide]
21 | > 100 nM | COc1ccc(F)c(-c2cccc(-c3ccc(NC(C)=O)c(F)c3)c2O)c1 [Example 158, N-(2″,3-difluoro-2′-hydroxy-5″-methoxy-[1,1′:3′,1″-terphenyl]-4-yl)acetamide]
22 | > 100 nM | COc1cc(-c2cccc(-c3cc(N4CCNCC4)no3)c2O)ccc1NC(C)=O [Example 23, N-(2′-Hydroxy-3-methoxy-3′-(3-(piperazin-1-yl)isoxazol-5-yl)-[1,1′-biphenyl]-4-yl)acetamide 2,2,2-trifluoroacetate]
23 | > 100 nM | CCOc1cc(-c2cccc(-c3cc(N4CCNCC4)no3)c2O)ccc1NC(C)=O [Example 19, N-(3-Ethoxy-2′-hydroxy-3′-(3-(piperazin-1-yl)isoxazol-5-yl)-[1,1′-biphenyl]-4-yl)acetamide 2,2,2-trifluoroacetate]
24 | 10 to 100 nM | COc1cc(-c2cccc(-c3cc(F)c(NC(C)=O)c(F)c3)c2O)ccc1NC(C)=O [Example 128, N,N′-(3,5-Difluoro-2′-hydroxy-3″-methoxy-[1,1′:3′,1″-terphenyl]-4,4″-diyl)diacetamide]
25 | > 100 nM | COc1cc(F)cc(-c2cccc(-c3ccc(NC(C)=O)c(F)c3)c2O)c1 [Example 146, N-(3,3″-difluoro-2′-hydroxy-5″-methoxy-[1,1′:3′,1″-terphenyl]-4-yl)acetamide]
26 | > 100 nM | CC(=O)Nc1ccc(-c2cccc(-c3ccc4c(c3)CCCO4)c2O)cc1F [Example 136, N-(3′-(chroman-6-yl)-3-fluoro-2′-hydroxy-[1,1′-biphenyl]-4-yl)acetamide]
27 | > 100 nM | CC(=O)Nc1ccc(-c2cccc(-c3ccc(NC(C)=O)cc3)c2O)cc1 [Example 11, N,N′-(2′-hydroxy-[1,1′:3′,1″-terphenyl]-4,4″-diyl)diacetamide]
28 | 10 to 100 nM | CN1CCN(c2ccc(-c3cccc(-c4cc(N5CCNCC5)no4)c3O)cc2)C1=O [Example 65, 1-(2′-Hydroxy-3′-(3-(piperazin-1-yl)isoxazol-5-yl)-[1,1′-biphenyl]-4-yl)-3-methylimidazolidin-2-one 2,2,2-trifluoroacetate]
29 | 10 to 100 nM | CC(=O)Nc1ccc(-c2cccc(-c3cccc(N4CCC5(CCNCC5)CC4)c3)c2O)cc1F [Example 195, N-(3-fluoro-2′-hydroxy-3″-(3.9-diazaspiro[5.5]undecan-3-yl)-[1,1′:3′,1″-terphenyl]-4-yl)acetamide]
30 | > 100 nM | CC(=O)Nc1ccc(-c2cccc(-c3cccc(C)c3)c2O)cc1F [Example 55, N-(3-fluoro-2′-hydroxy-3″-methyl-[1,1′:3′,1″-terphenyl]-4-yl)acetamide]
31 | 10 to 100 nM | CC(=O)Nc1ccc(-c2cccc(-c3ccc(N)nc3)c2O)cc1F [Example 110, N-(3′-(6-Aminopyridin-3-yl)-3-fluoro-2′-hydroxy-[1,1′-biphenyl]-4-yl)acetamide]
32 | 1 to 10 nM | CC(=O)Nc1ccc(-c2cccc(-c3cccc(N4CC(C)NC(C)C4)c3)c2O)cc1F (stereo not shown) [Example 200, N-(3″-(3,5-dimethylpiperazin-1-yl)-3-fluoro-2′-hydroxy-[1,1′:3′,1″-terphenyl]-4-yl)acetamide]
33 | 10 to 100 nM | CC(=O)Nc1ccc(-c2cccc(-c3cc(N4CCN(C(C)C)CC4)no3)c2O)cc1F [Example 152, N-(3-fluoro-2′-hydroxy-3′-(3-(4-isopropylpiperazin-1-yl)isoxazol-5-yl)-[1,1′-biphenyl]-4-yl)acetamide 2,2,2-trifluoroacetate]
34 | 10 to 100 nM | CC(=O)Nc1ccc(-c2cccc(-c3ccc4[nH]cnc4c3)c2O)cc1F [Example 131, N-(3′-(1H-Benzo[d]imidazol-5-yl)-3-fluoro-2′-hydroxy-[1,1′-biphenyl]-4-yl)acetamide]

Reference: patent US20250179059A1 (The Regents of the University of California, priority 2021, published 2025)
